{"source": "patent US20220023273A1", "about": "“METHODS FOR TREATING SYMPTOMS AND DISORDERS ASSOCIATED WITH LYSOSOMAL STORAGE DISEASES” (GENZYME CORPORATION, priority 2019, published 2022)", "format_in_all_cases": "in vivo, human", "key": {"plasma GL-3": {"test_system": "plasma GL-3", "experiment": "Fabry: matched comparison with historical phase 3 trial of agalsidase beta", "conditions": "Fabry males, 15 mg/day oral", "excerpt": "Mean ages were similar across the three groups."}, "[1]": {"experiment": "Phase 1 studies: safety profile", "method": "In all studies, safety profile was assessed by monitoring treatment-emergent adverse events (TEAEs) through 10 days after last dose of study medication, including serious adverse events [SAEs]), ECG monitoring, laboratory values, and physical examinations."}, "[2]": {"experiment": "GD3 clinical study: pharmacokinetics in plasma and CSF", "conditions": "for AUC: human, plasma, po, Day 1 (N = 5), read-out: AUC0_24 (mean ± SD)", "excerpt": "Patients 18 years of age or older with a clinical diagnosis of GD3 and documented deficiency of acid beta-glucosidase activity having received treatment with ERT for at least 3 years and with imiglucerase (Cerezyme) at a stable monthly dose for at least 6 months prior to enrollment were included in the study. Patients must have reached the following GD therapeutic goals: hemoglobin level of ≥11.0 g/dL for females and ≥12.0 g/dL for males; platelet count ≥100 000/mm3; spleen volume <10 multiples of normal (MN), or total splenectomy (provided the splenectomy occurred >3 years prior to randomization); liver volume <1.5 MN; and no bone crisis and free of symptomatic bone disease such as bone pain attributable to osteonecrosis and/or pathological fractures within the last year. Patients must have GD3 featuring oculomotor apraxia (supranuclear gaze palsy) characterized by a horizontal saccade abnormality.\nDuring the study patients were evaluated for safety and tolerability, CSF and plasma biomarkers (glucosylceramide, GL-1; glucosylsphingosine, lyso-GL1), pharmacokinetics, markers for systemic disease (spleen and liver volume measured by magnetic resonance imaging (MRI), platelet count, hemoglobin levels), indicia of interstitial lung disease (high resolution pulmonary computed tomography (CT)), and horizontal saccadic eye movement.\nA second interim analysis was performed when the first 6 patients had reached 52-weeks of treatment, as described above in section (A). This analysis included Patients 1-5 as described in section (A), as well as new Patient 6. All six patients had L444P (1448T/C) homozygous Gaucher phenotype."}, "[3]": {"experiment": "Phase 1 Study 2: ascending repeated-dose pharmacokinetics"}, "[4]": {"test_system": "chitotriosidase (CHITO), GM3, GPNMB, ceramide", "experiment": "GD3 clinical study: exploratory biomarkers", "conditions": "GD3, 15 mg/day oral + imiglucerase", "method": "Four exploratory biomarkers were quantified in plasma, serum and/or CSF of GD3 patients at week 4 and week 26: chitotriosidase (CHITO; an enzyme known to be elevated in GD patients) was measured in CSF and serum; GM3 (a glycosphingolipid marker known to be elevated in GD patients) was measured in CSF and plasma; and glycoprotein nonmetastatic melanoma protein B (GPNMB; reportedly a biomarker of neuropathic GD3) was measured in CSF. The results are shown in the table below as percent change from baseline at week 4 and week 26 for each parameter:\nIn addition, exploratory biomarkers were quantified in CSF of GD3 patients: ceramide (the precursor of GL-1), chitotriosidase (CHITO), GM3, and GPNMB."}, "[5]": {"test_system": "GL-3 inclusions in skin cells", "experiment": "Fabry clinical study: skin GL-3 inclusion score by light microscopy", "conditions": "Fabry males", "method": "A three-year open-label investigation of Compound 2 in young classic Fabry disease patients was conducted in order to evaluate the long-term safety, pharmacodynamics and exploratory efficacy of Compound 2 in adult male Fabry patients. Eleven subjects enrolled in the study, and seven subjects completed all aspects of the study. All subjects were males diagnosed with classic Fabry disease confirmed by genotype and residual alpha-galactosidase activity below detection levels (9 of the 11 had nonsense mutation in the GLA gene). All subjects had lyso-GL3 levels in plasma of at least 65 ng/mL and had no prior Fabry disease-specific treatment. The median age of subject was 24 years (range 19-37).\nEach sample was scored independently by 3 pathologists for the presence of GL-3 inclusions on a four-point scale, and rated as 0 (no/trace), 1 (mild), 2 (moderate), or 3 (severe) according to Eng et al., N. Engl. J. Med. 345:9-16 (2001). A single score per patient per time point was derived by taking the score rated by the majority of the three pathologists. If a majority score could not be derived, then the median score was used (resulting in some fractional scores). Plasma samples were also analyzed for GL-3, lyso-GL-3, GL-1 and GM3 at baseline and weeks 12, 26, 52 and 156. Pain scores and abdominal symptoms were analyzed at baseline and weeks 12, 26, 52, 104 and 156 using the SF-36 scoring protocol."}, "[6]": {"experiment": "Phase 1 Study 1 Part 2: PK with and without a high-fat meal", "conditions": "healthy men, single oral 5 mg, fed vs fasting", "excerpt": "Study 1 was a 2-part single-center trial in healthy adult male volunteers.\nAfter a 7-day washout period, participants were crossed over to the other condition."}, "[7]": {"test_system": "adult patients with Gaucher disease Type 3", "experiment": "GD3 clinical study: trail making test (TMT)", "conditions": "GD3, 15 mg/day oral + imiglucerase", "excerpt": "The trail making test (TMT) was used to evaluate cognitive function in the patients. The TMT is one of the most widely used neuropsychological tests and is included in most test batteries. The TMT is a diagnostic tool to assess general intelligence and cognitive dysfunctions (Tombaugh et al. [2004]; Cavaco et al. [2013]). In part A of the TMT, subjects are asked to connect a cluster of numbers in ascending order. This task is a combination of visual search and general visual and motor processing speed. Part B presents a sequence which alternates between numbers and letters. Subjects must actively switch between both categories when connecting them in ascending, but alternating order.\nTMT-A evaluates mainly perceptual and psychomotor speed. TMT-B assesses more specifically mental flexibility and shifting abilities. TMT B minus TMT A score is used to remove the variance attributable to the graphomotor and visual scanning components of TMT A. This derived score reflects the unique task requirements of TMT B."}, "[8]": {"conditions": "healthy volunteers, all Phase 1 studies"}, "[9]": {"conditions": "healthy adults, 5 mg once daily, Day 14"}, "[10]": {"conditions": "repeated once-daily doses from 5-20 mg"}}, "note": "Values joined by “and” are separate entries in the source; they are usually repeats but may differ in a detail not shown here. Equal entries are not always repeated. Where two headings read alike, the source gives them in different places."}
{"smiles": "CC(C)(NC(=O)O[C@@H]1CN2CCC1CC2)c1csc(-c2ccc(F)cc2)n1", "note": "[Compound 2, (S)-quinuclidin-3-yl (2-(2-(4-fluorophenyl)thiazol-4-yl)propan-2-yl)carbamate]", "values": [{"measurement": "reduction in plasma GL-3", "setting": "plasma GL-3; 26 weeks, matched comparison to placebo (−1.06 μg/mL, P<0.0001)", "value": -3.62, "unit": "µg/mL"}, {"measurement": "plasma GL-3 reduction compared to agalsidase beta", "setting": "plasma GL-3; 104 weeks (p=0.0351) and 156 weeks (p=0.0081)", "value": "significantly greater"}, {"measurement": "Vital signs", "setting": "[1]; [8]", "value": "no relevant changes from baseline"}, {"measurement": "deaths, SAEs, severe TEAEs, discontinuations", "setting": "[1]; [8]", "value": "no deaths, SAEs, severe TEAEs, or TEAEs leading to study discontinuation"}, {"measurement": "hematologic or biochemical abnormalities", "setting": "[1]; [8]", "value": "No clinically relevant hematologic or biochemical abnormalities"}, {"measurement": "ECG parameters", "setting": "[1]; single ascending dose and food effect studies", "value": "no relevant changes"}, {"measurement": "Compound 2 in CSF, concentration 2-4 hours post dose (mean)", "setting": "[2]; Day 1 (N = 6), GD3, 15 mg/day oral + imiglucerase", "value": "<LLOQ"}, {"measurement": "time at which steady state concentration is reached in plasma and CSF", "setting": "[2]; GD3, 15 mg/day oral + imiglucerase", "value": "≤ 4", "unit": "Week"}, {"measurement": "Patient 5: lower concentrations of Compound 2 in plasma and CSF", "setting": "[2]; Week 26, believed due to compliance or dosing errors", "value": "about 50%"}, {"measurement": "Patient 5: concentrations of Compound 2 in plasma and CSF", "setting": "[2]; Week 52, believed due to compliance or dosing errors", "value": "undetectable"}, {"measurement": "crossing of the blood-brain barrier", "setting": "[2]; all patients, GD3, 15 mg/day oral + imiglucerase", "value": "effectively cross the blood-brain barrier"}, {"measurement": "AUC", "setting": "[2]; 26-week interim, GD3, 15 mg/day oral + imiglucerase", "value": "715 ± 225", "unit": "ng·h/mL"}, {"measurement": "AUC", "setting": "[2]; 52-week interim, GD3, 15 mg/day oral + imiglucerase", "value": "729 ± 205", "unit": "ng·h/mL"}, {"measurement": "AUC0-24, Geometric mean (CV)", "setting": "[3]; [9]", "value": "632 (19) ng · h/mL"}, {"measurement": "AUC0-24, Mean (SD)", "setting": "[3]; [9]", "value": "642 (121) ng · h/mL"}, {"measurement": "tmax, median (range)", "setting": "[3]; healthy adults, 10 mg once daily, Day 1", "value": "3.00 (2.00-5.00) h"}, {"measurement": "tmax, median (range)", "setting": "[3]; healthy adults, 20 mg once daily, Day 14", "value": "3.00 (2.00-8.00) h"}, {"measurement": "Ctrough values", "setting": "[3]; healthy adults, 5, 10, or 20 mg once daily for 14 days", "value": "reached a plateau after Day 5"}, {"measurement": "effect of age and gender on accumulation", "setting": "[3]; [10]", "value": "neither age nor gender affected accumulation"}, {"measurement": "time to steady state", "setting": "[3]; [10]", "value": "≤ 5", "unit": "days"}, {"measurement": "GM3 in CSF", "setting": "[4]; 4, 26 and 52 weeks, the four of six patients with measurable GM3 at baseline", "value": "undetectable"}, {"measurement": "CSF concentrations of ceramide, CHITO or GPNMB", "setting": "[4]; after 52 weeks", "value": "no significant changes"}, {"measurement": "levels of GL-3 inclusions in the skin", "setting": "[5]; 15 mg/day", "value": "consistently reduces the levels of GL-3 inclusions in the skin"}, {"measurement": "patients with a 1-point reduction in skin GL-3 score", "setting": "[5]; by week 156, 15 mg/day oral", "value": "five"}, {"measurement": "patients with complete clearance of GL-3 inclusions", "setting": "[5]; by week 156, 15 mg/day oral", "value": "two"}, {"measurement": "patients with no change in skin GL-3 score", "setting": "[5]; by week 156, 15 mg/day oral", "value": "one"}, {"measurement": "effect of a high-fat meal on Compound 2 exposure", "setting": "[6]", "value": "no effect"}, {"measurement": "TMT-A-TMT-B", "setting": "[7]; Week 52, individual patients 1-6", "value": 20, "unit": "s"}, {"measurement": "patients with a TMT-A reduction, excluding Patient 5", "setting": "[7]; Week 52", "value": "four of five"}, {"measurement": "patients with a TMT-B reduction, excluding Patient 5", "setting": "[7]; Week 52", "value": "five of five"}, {"measurement": "patients with a reduction in the (TMT B-TMT A) time", "setting": "[7]; Week 52", "value": "5 of 6"}, {"measurement": "patients with an improvement in Trail B minus Trial A, excluding Patient 5", "setting": "[7]; Week 52", "value": "four of five"}, {"measurement": "patients with reduction in time taken to complete Trail A", "setting": "[7]; Week 52", "value": "Four of six"}, {"measurement": "patients with reduction in time taken to complete Trail B", "setting": "[7]; Week 52", "value": "six of six"}, {"measurement": "TMT-A-TMT-B, Change (%) from Baseline to Week 52", "setting": "[7]; individual patients 1-6", "value": "−72% and −43%"}]}
